From ChEMBL document CHEMBL2346539, “Effects of geraniin on osteoclastic bone resorption and matrix metalloproteinase-9 expression” (2013) come the findings set out here.

For assay [1], the system named is Osteoclast. The experiment in a line: Inhibition of rat osteoclasts-induced resorption in bovine bone at 10^-8 mol/L co-cultured for 72 hrs using toluidine blue staining by SEM analysis. In kind it is functional, cell-based.
The subject of assay [2] is Bone. Description: Inhibition of osteoclastogenesis in Sprague-Dawley rat bone assessed as decrease in TRAP-positive multi-nucleated cells after 72 hrs by microscopy. The assay is classed as functional, tissue-based. The following applies: Bone element.
In assay [3] the test system is Bone. The experiment in a line: Inhibition of osteoclastogenesis in Sprague-Dawley rat bone assessed as inhibition of fusion index at 10^-10 mol/L after 72 hrs by microscopy. The assay is classed as functional. The following applies: Bone element.
Assay [4] concerns Bone. Description: Inhibition of osteoclastogenesis in Sprague-Dawley rat bone assessed as decrease in TRAP-positive multi-nucleated cells at 10^-8 mol/L after 72 hrs by microscopy. In kind it is functional, tissue-based. The following applies: Bone element.
Assay [5] has as its system Osteoclast. Description: Reduction in number of resorption pits in rat osteoclasts-stimulated bovine bone at 10^-8 mol/L co-cultured for 72 hrs using toluidine blue staining by SEM analysis. In kind it is functional, cell-based.
Assay [6] deals with Bone. Description: Inhibition of osteoclastogenesis in Sprague-Dawley rat bone assessed as inhibition of fusion index at 10^-8 mol/L after 72 hrs by microscopy. The assay is classed as functional. The following applies: Bone element.
For assay [7], the system named is Bone. The experiment in a line: Reduction in number of pre-osteoclasts in Sprague-Dawley rat bone at 10^-8 mol/L after 72 hrs by microscopy. The assay is classed as functional, tissue-based. To be noted: Bone element.
Assay [8] concerns Bone. The experiment in a line: Inhibition of osteoclastogenesis in Sprague-Dawley rat bone assessed as inhibition of fusion index at 10^-9 mol/L after 72 hrs by microscopy. The assay is classed as functional. To be noted: Bone element.
The nature of assay [9]: Reduction of MMP9 protein expression in rat osteoclasts assessed as reduction in integral optical density by immunocytochemistry analysis. The assay is classed as functional, cell-based. The following applies: Osteoclast.
A short description of assay [10]: Reduction of MMP9 mRNA expression in rat osteoclasts assessed as reduction in mean optical density at 10^-8 mol/L by in situ hybridization assay. To be noted: Osteoclast. The assay is classed as functional, cell-based.
Assay [11] can be described thus: Reduction of MMP9 protein expression in rat osteoclasts assessed as reduction in mean optical density by immunocytochemistry analysis. The assay is classed as functional, cell-based. The following applies: Osteoclast.
The test system of assay [12] is Osteoclast. Description: Inhibition of rat osteoclasts-induced resorption in bovine bone co-cultured for 72 hrs using toluidine blue staining by SEM analysis. In kind it is functional, cell-based.
Assay [13] is described as follows: Reduction of MMP9 mRNA expression in rat osteoclasts assessed as reduction in integral optical density at 10^-8 mol/L by in situ hybridization assay. The following applies: Osteoclast. In kind it is functional, cell-based.
Assay [14] concerns Bone. The experiment in a line: Inhibition of osteoclastogenesis in Sprague-Dawley rat bone assessed as inhibition of fusion index at 10^-11 mol/L after 72 hrs by microscopy. In kind it is functional. The following applies: Bone element.

The source made the active and inactive calls. No cut-off for these calls is given here.

For orientation: inhibition means the percentage by which the read-out fell short of the control. For `O=C1O[C@H]2[C@@H]3OC(=O)c4cc(O)c(O)c(O)c4-c4c(cc(O)c(O)c4O)C(=O)OC[C@H]2O[C@@H](OC(=O)c2cc(O)c(O)c(O)c2)[C@@H]3OC(=O)c2cc(O)c(O)c3c2[C@@H]2C1=CC(=O)[C@](O)(O3)C2(O)O` [GERANIIN], the inhibition entry with Osteoclast [1] and with Bone [4] was “Active” each time. The inhibition entry with Bone [2] and in the assay on Osteoclast [12] was “Dose-dependent effect” throughout. Also, the inhibition at 0.0001 µM with Bone [3] amounted to 9.31%. Also, the outcome (with Osteoclast [5]; in the assay with Bone [7]; in assay [10]; in assay [13]) was Active. Also, the inhibition at 0.01 µM in the assay on Bone [6] came out at 46%. The inhibition at 0.001 µM in the assay with Bone [8] came out at 24.2%. Besides, the Activity result in assay [9] and in assay [11] was “Dose-dependent effect” in each case. The inhibition at 10 pM in the assay with Bone [14] is 3.05%.
